Source: US11986450B2, “Methods and compositions for treating infection and inflammation with selenocyanate” (National Jewish Health, priority 2017, dated 2024)

Assays:
P. aeruginosa: AMT0105L = test: Viability after HOSCN exposure; details: late disease antibiotic-resistant CF isolate
DmTrxR (containing Cys) = DmTrxR (containing Cys) (Drosophila melanogaster, UniProt P91938); test: Inactivation of TrxR by oxidants; type: biochemical
Method: (§1) Based on data, it is expected that Sec-TrxR1 is able to metabolize both HOSCN and HOSeCN but not HOCl, and that Cys-TrxR's is unable to metabolize these oxidants. The active site Cys or Sec residue of each respective enzyme is oxidized to either Cys-SO2^− or Sec-SeO2^−. The Cys-TrxR cannot recover from this oxidation while the Sec-TrxR can. To test this, an inactivation assay is performed followed by structural analysis of the protein by MS. In the inactivation assay, (i) enzymes are reduced with NADPH, (ii) the enzymes are treated with oxidant followed by desalting to remove oxidant, and (iii) the enzyme is assayed for activity. […] The proteins are proteolyzed followed by LC-MS analyses. The LC-MS profiles are compared to control samples not treated with oxidant. This determines the exact mechanism of inactivation for each enzyme. […] This would explain why HOCl is highly inflammatory (nonspecific oxidation), and why HOSCN is used as a bactericide because it can rapidly inactivate proteins/enzyme by oxidation of sulfur amino acids (Cys, Met), but can be metabolized by the host cell by Sec-TrxR.

[1] = target: Sec-containing TrxR2 (Sec-TrxR2) (Mus musculus, UniProt Q9JLT4); test: Inactivation of TrxR by oxidants; type: biochemical
Sec-containing TrxR2 (Sec-TrxR2), sequence (Q9JLT4 35-524): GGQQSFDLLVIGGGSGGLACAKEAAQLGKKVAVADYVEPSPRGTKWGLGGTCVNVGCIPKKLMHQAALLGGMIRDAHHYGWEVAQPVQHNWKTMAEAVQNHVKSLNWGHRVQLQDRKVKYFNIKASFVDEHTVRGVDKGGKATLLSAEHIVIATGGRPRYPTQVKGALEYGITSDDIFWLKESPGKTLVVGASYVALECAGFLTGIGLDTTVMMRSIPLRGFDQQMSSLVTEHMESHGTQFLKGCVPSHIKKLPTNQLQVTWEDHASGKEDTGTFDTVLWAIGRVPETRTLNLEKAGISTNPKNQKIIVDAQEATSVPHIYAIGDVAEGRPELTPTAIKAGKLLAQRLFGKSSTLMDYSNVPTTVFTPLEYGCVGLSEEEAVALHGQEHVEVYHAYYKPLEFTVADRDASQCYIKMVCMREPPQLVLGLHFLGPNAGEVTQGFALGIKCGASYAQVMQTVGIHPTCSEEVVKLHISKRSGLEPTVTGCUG
Method: as §1

DmTrxR (containing Cys), sequence (P91938 112-596 limits assumed): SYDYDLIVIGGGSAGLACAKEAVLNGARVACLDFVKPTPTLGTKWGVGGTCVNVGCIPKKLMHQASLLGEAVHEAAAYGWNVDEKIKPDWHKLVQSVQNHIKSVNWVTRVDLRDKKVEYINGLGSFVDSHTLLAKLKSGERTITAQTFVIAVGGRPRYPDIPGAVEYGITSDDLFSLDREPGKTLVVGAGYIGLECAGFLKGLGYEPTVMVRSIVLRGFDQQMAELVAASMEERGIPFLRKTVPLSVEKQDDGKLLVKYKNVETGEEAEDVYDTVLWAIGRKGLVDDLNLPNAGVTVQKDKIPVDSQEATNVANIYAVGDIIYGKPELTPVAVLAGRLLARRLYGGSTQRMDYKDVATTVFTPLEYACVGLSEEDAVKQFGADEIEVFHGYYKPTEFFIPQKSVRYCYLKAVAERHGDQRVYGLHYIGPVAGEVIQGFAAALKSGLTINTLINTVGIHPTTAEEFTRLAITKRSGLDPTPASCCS

N#CSO [HOSCN, hypothiocyanite]
Viability (%) (P. aeruginosa: AMT0105L): 0% | Inactivation of DmTrxR by oxidant (DmTrxR (containing Cys)): is inactivated | Inactivation of Sec-TrxR2 by oxidant [1]: resists inactivation
